What all share (assay): inhibition of tumour cell growth, NCI panel, 48 h
The subject of test [1] is 786-0.
Test [2] has as its system CAKI-1.
The test system of test [3] is CCRF-CEM.
The test system of test [4] is EKVX.
Test [5] deals with HCC 2998.
The test system of test [6] is HL-60.
Test [7] deals with HOP-92.
Test [8] has as its system LOX IMVI.
Test [9] relates to NCI-H460.
The test system of test [10] is OVCAR-5.
Test [11] has as its system RPMI-8226.
Test [12] relates to RXF 393.
Test [13] relates to SF-268.
Test [14] deals with SF-539.
Test [15] deals with SK-MEL-28.
Test [16] relates to SK-MEL-2.
The subject of test [17] is UACC-62.
Test [18] concerns DU-145.
Test [19] deals with PC-3.

Structures are written as SMILES.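 Dose response: 5 concentrations. Exposure: 48 h. Format: 96-well plates. Endpoint: linear interpolation; highest concentration if not reached. GI50 marks 50% less growth.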 Activity calls are given as the source filed them. No stated cut-off is given here; in the data, active = GI50 up to about 1.1 µM and inactive = higher.

Take `CCC(O)(c1ccc(OC)cc1)C(c1ccc(OCc2ccccc2)cc1)c1ccc(OCc2ccccc2)cc1` (stereo unspecified): the GI50 in test [1], in [2], in test [3], in test [4], in test [5] and in test [6] was > 100 µM (inactive) throughout. For the same compound, the GI50 in test [7], in [8], in test [9], in test [10], in test [11] and in [12] was > 100 µM (inactive) each time. In addition, the GI50 in test [13], in [14], in test [15], in test [16] and in test [17] was > 100 µM (inactive) each time.
Take `CC(=O)c1ccc(N2CCN(C3=C(Cl)C(=O)c4c(O)ccc(O)c4C3=O)CC2)cc1`: the GI50 in [1] is 14.2 µM (inactive); in test [2], 4.89 µM (inactive); in test [3], 0.417 µM (active); in test [18], 17.1 µM (inactive); in [4], 18.7 µM (inactive); in [5], 15.6 µM (inactive). The GI50 in test [6] is 0.271 µM (active); in test [7], 2.11 µM (inactive); in test [9] it was 16.8 µM (inactive); in test [10], 18.9 µM (inactive); in test [19] it was 5.64 µM (inactive); in test [11], 2.86 µM (inactive). Further, the GI50 in [12] is 3.02 µM (inactive); in [13] it was 3.1 µM (inactive); in test [14], 13.8 µM (inactive); in test [15], 5.21 µM (inactive); in test [17], 2.74 µM (inactive).
On to `O=c1[nH]c(=O)n(CCOc2ccc(Cl)cc2)cc1Nc1ccccc1`, for which the GI50 is 44.3 µM (inactive) in [1]; > 100 µM (inactive) in [2]; > 100 µM (inactive) in test [3]; > 100 µM (inactive) in [18]; 71 µM (inactive) in test [4]; > 100 µM (inactive) in [5]. Besides, the GI50 in test [6], in [7], in [8], in test [9], in test [10] and in test [19] was > 100 µM (inactive) in each case. Further, the GI50 in test [11] was > 100 µM (inactive); in [12], > 100 µM (inactive); in test [13] it was 39.9 µM (inactive); in test [15], > 100 µM (inactive); in [17], > 100 µM (inactive).
For `COc1ccccc1N1CCN(CCCNC(=O)c2cc(Cl)c(N)c(Cl)c2)CC1`, the GI50 was 33.3 µM (inactive) in test [1]; 29.7 µM (inactive) in test [3]; 88.1 µM (inactive) in [18]; > 100 µM (inactive) in [4]; 21.5 µM (inactive) in test [5]; 15.5 µM (inactive) in test [6]. Besides, the GI50 in test [7] was 4.36 µM (inactive); in test [9], 23.3 µM (inactive); in test [10] it was 44.6 µM (inactive); in [11] it was 18.7 µM (inactive); in test [12], 27 µM (inactive); in test [13] it was 77.4 µM (inactive). The results for the GI50 in test [14], in test [15] and in test [17] were 28.6 µM (inactive), 32.4 µM (inactive) and 35 µM (inactive), respectively.
